Reference: publication PMC10384010, “Chromatographic Data in Statistical Analysis of BBB Permeability Indices” (Membranes, 2023)
Like-named read-outs stand apart in the source and are kept apart here.

Columns and labels:
[1] = Normal-phase TLC on silica gel 60 F254 (Rf); type: physicochemical; settings: water:methanol:acetonitrile 60:20:20, ammonium acetate pH 7.4
Experimental: The purity of the isolated substances was checked by TLC chromatography and densitometric scanning.
APIs were subjected to chromatographic in column (HPLC) and thin layer (TLC) formats. TLC chromatography was carried out on 20 cm × 20 cm glass plates by Merck, covered with silica gel and the addition of a fluorescent indicator. Merck TLC silica gel 60 F254 was used for the normal phase (NP). In the reverse phase (RP), RP-2 silanized plates were used (Merck TLC Silica gel 60 RP-2 F254, silanized). The mobile phase was buffered with ammonium acetate to pH 7.4 (LACH-NER, ammonium acetate).
Plates, after developing the chromatograms, were scanned using a densitometer (Desaga CD 60) with an analytical wavelength selected individually for drugs. The values of Rf (molecular descriptors: NP, RP) were determined.

[2] = HPLC on IAM (immobilized artificial membrane) column, retention factor; type: physicochemical; settings: IAM.PC.DD.2 column; for k(IAM) retention factor: 10 mM phosphate buffer pH 7.4:acetonitrile 80:20; for logkIAM: logarithm of retention factor, phosphate buffer pH 7.4:acetonitrile 80:20
Experimental: Chromatographic data also came from an experiment with a HPLC IAM (immobilized artificial membrane) column (Regis Technologies Inc.: IAM.PC.DD.2, 10 µm; 4.6 mm × 10 mm). The column contains a standard membrane consisting of a phospholipid bilayer. Organic solvents (acetonitrile and methanol) and water (J.T. Baker HPLC) were used in HPLC. Sigma phosphate buffered saline tablets were used to prepare the phosphate buffer. The mobile phase was a mixture of 10 mM phosphate buffer at pH 7.4 and acetonitrile in the ratio of 80:20 (v/v) [35]. The mobile phase flow was set at 0.5 mL/min; detection was carried out with a UV–Vis detector. The obtained values of the retention factor (k IAM) were transformed into a logarithmic form and entered into the statistical analysis (descriptor: log k IAM).

[3] = entering the CNS / not entering the CNS; ref Drugbank [36]; cited from earlier work
[4] = Reversed-phase TLC on RP-2 silanized plates (Rf); type: physicochemical; settings: silica gel 60 RP-2 F254 silanized; water:methanol:acetonitrile 60:20:20, ammonium acetate pH 7.4
[5] = cited from earlier work
[6] = plasma protein binding, given as fraction, ref Drugbank

SMILES: CC(=O)CC(c1ccc([N+](=O)[O-])cc1)c1c(O)c2ccccc2oc1=O (centres unmarked) [acenocumarol]
- NP (Rf from NP TLC plate) [1]: 0.99
- k(IAM) retention factor [2]: 0.53
- logkIAM [2]: -0.27
- CNS+/- [3]: 1

SMILES: CNCCc1ccccn1 [betahistine]
- NP (Rf from NP TLC plate) [1]: 0.17
- RP (Rf from RP-2 TLC plate) [4]: 0.31
- k(IAM) retention factor [2]: 0.90
- logkIAM [2]: -0.05
- CNS+/- [3]: 1

SMILES: CCCCCOC(=O)Nc1nc(=O)n([C@@H]2O[C@H](C)[C@@H](O)[C@H]2O)cc1F [capecitabine]
- NP (Rf from NP TLC plate) [1]: 0.92
- RP (Rf from RP-2 TLC plate) [4]: 0.9
- k(IAM) retention factor [2]: 1.11
- logkIAM [2]: 0.04
- CNS+/- [3]: 1

SMILES: CC[C@H]1OC(=O)[C@H](C)[C@@H](O[C@H]2C[C@@](C)(OC)[C@@H](O)[C@H](C)O2)[C@H](C)[C@@H](O[C@@H]2O[C@H](C)C[C@H](N(C)C)[C@H]2O)[C@](C)(OC)C[C@@H](C)C(=O)[C@H](C)[C@@H](O)[C@]1(C)O [clarithromycin]
- NP (Rf from NP TLC plate) [1]: 0.99
- RP (Rf from RP-2 TLC plate) [4]: 0.83
- k(IAM) retention factor [2]: 0.10
- logkIAM [2]: -1.02
- CNS+/- [3]: 0

SMILES: O=C(O)C1N=C(c2ccccc2)c2cc(Cl)ccc2NC1=O (centres unmarked) [clorazepate]
- NP (Rf from NP TLC plate) [1]: 0.94
- RP (Rf from RP-2 TLC plate) [4]: 0.81
- PB (protein binding) [5, 6]: 0.975
- k(IAM) retention factor [2]: 4.88
- logkIAM [2]: 0.69

SMILES: CN(C)CCOC(c1ccccc1)c1ccccc1 [diphenhydramin]
- NP (Rf from NP TLC plate) [1]: 0.42
- RP (Rf from RP-2 TLC plate) [4]: 0.58
- PB (protein binding) ([5]; plasma): 0.985
- k(IAM) retention factor [2]: 3.66
- logkIAM [2]: 0.56

SMILES: CCOc1ccc(/C=C2\NCCc3cc(OCC)c(OCC)cc32)cc1OCC [drotaverine]
- NP (Rf from NP TLC plate) [1]: 0.61
- RP (Rf from RP-2 TLC plate) [4]: 0.55
- k(IAM) retention factor [2]: 31.24
- logkIAM [2]: 1.49
- CNS+/- [3]: 1

SMILES: CN1CCC[C@@H]1Cc1c[nH]c2ccc(CCS(=O)(=O)c3ccccc3)cc12 [eletriptan]
- CNS+/- [3]: 1

SMILES: C[C@]12CC[C@@H]3c4ccc(OC(=O)c5ccccc5)cc4CC[C@H]3[C@@H]1CC[C@@H]2O [estradiol benzoate]
- NP (Rf from NP TLC plate) [1]: 0.97
- RP (Rf from RP-2 TLC plate) [4]: 0.63
- PB (protein binding) [5, 6]: 0.95
- k(IAM) retention factor [2]: 6.92
- logkIAM [2]: 0.84

SMILES: C[C@]12CC[C@@H]3c4ccc(O)cc4CC[C@H]3[C@@H]1CCC2=O [estrone]
- NP (Rf from NP TLC plate) [1]: 0.99
- RP (Rf from RP-2 TLC plate) [4]: 0.79
- PB (protein binding) [5, 6]: 0.95
- k(IAM) retention factor [2]: 29.40
- logkIAM [2]: 1.47

SMILES: CC[C@@H](CO)NCCN[C@@H](CC)CO [ethambutol]
- NP (Rf from NP TLC plate) [1]: 0.19
- RP (Rf from RP-2 TLC plate) [4]: 0.97
- CNS+/- [3]: 0

SMILES: O[C@@H]1CO[C@H]2[C@@H]1OC[C@@H]2O [isosorbide]
- NP (Rf from NP TLC plate) [1]: 0.26
- RP (Rf from RP-2 TLC plate) [4]: 0.54
- k(IAM) retention factor [2]: 0.21
- logkIAM [2]: -0.68
- CNS+/- [3]: 1

SMILES: C[C@H]1COc2c(N3CCN(C)CC3)c(F)cc3c(=O)c(C(=O)O)cn1c23 [levofloxacin]
- NP (Rf from NP TLC plate) [1]: 0.17
- RP (Rf from RP-2 TLC plate) [4]: 0.27
- PB (protein binding) [5, 6]: 0.31
- k(IAM) retention factor [2]: 0.90
- logkIAM [2]: -0.04

SMILES: CN1CCN=C(c2ccccc2)c2cc(Cl)ccc21 [medazepam]
- NP (Rf from NP TLC plate) [1]: 0.91
- RP (Rf from RP-2 TLC plate) [4]: 0.66
- PB (protein binding) [5, 6]: 0.99
- k(IAM) retention factor [2]: 34.65
- logkIAM [2]: 1.54

SMILES: CN(C)C(=N)N=C(N)N [metformin]
- NP (Rf from NP TLC plate) [1]: 0.21
- RP (Rf from RP-2 TLC plate) [4]: 0.78
- k(IAM) retention factor [2]: 0.34
- logkIAM [2]: -0.47
- CNS+/- [3]: 1

SMILES: COCCc1ccc(OCC(O)CNC(C)C)cc1 (centres unmarked) [metoprolol]
- NP (Rf from NP TLC plate) [1]: 0.48
- RP (Rf from RP-2 TLC plate) [4]: 0.28
- k(IAM) retention factor [2]: 4.32
- logkIAM [2]: 0.64
- CNS+/- [3]: 0

SMILES: OC(CNCC(O)C1CCc2cc(F)ccc2O1)C1CCc2cc(F)ccc2O1 (centres unmarked) [nebivolol]
- NP (Rf from NP TLC plate) [1]: 0.75
- RP (Rf from RP-2 TLC plate) [4]: 0.4
- CNS+/- [3]: 1

SMILES: C[C@]12C=CC(=O)C=C1CC[C@@H]1[C@@H]2[C@@H](O)C[C@@]2(C)[C@H]1CC[C@]2(O)C(=O)CO [prednizolone]
- NP (Rf from NP TLC plate) [1]: 0.94
- RP (Rf from RP-2 TLC plate) [4]: 0.87
- PB (protein binding) ([5]; plasma): 0.9
- k(IAM) retention factor [2]: 2.84
- logkIAM [2]: 0.45

SMILES: CC(=O)[C@H]1CC[C@H]2[C@@H]3CCC4=CC(=O)CC[C@]4(C)[C@H]3CC[C@]12C [progesterone]
- NP (Rf from NP TLC plate) [1]: 0.96
- RP (Rf from RP-2 TLC plate) [4]: 0.71
- PB (protein binding) [5, 6]: 0.975
- k(IAM) retention factor [2]: 34.99
- logkIAM [2]: 1.54

SMILES: CNC(=C[N+](=O)[O-])NCCSCc1ccc(CN(C)C)o1 [ranitidine]
- NP (Rf from NP TLC plate) [1]: 0.24
- RP (Rf from RP-2 TLC plate) [4]: 0.81
- k(IAM) retention factor [2]: 0.67
- logkIAM [2]: -0.17
- CNS+/- [3]: 0

SMILES: Cc1cncc(CN2CCC(=C3c4ccc(Cl)cc4CCc4cccnc43)CC2)c1 [rupatadine]
- NP (Rf from NP TLC plate) [1]: 0.42
- RP (Rf from RP-2 TLC plate) [4]: 0.55
- PB (protein binding) [5, 6]: 0.985
- k(IAM) retention factor [2]: 9.29
- logkIAM [2]: 0.97

SMILES: CN[C@H]1CC[C@@H](c2ccc(Cl)c(Cl)c2)c2ccccc21 [sertraline]
- NP (Rf from NP TLC plate) [1]: 0.53
- RP (Rf from RP-2 TLC plate) [4]: 0.49
- PB (protein binding) [5, 6]: 0.98
- k(IAM) retention factor [2]: 42.89
- logkIAM [2]: 1.63

SMILES: CCCc1nn(C)c2c(=O)[nH]c(-c3cc(S(=O)(=O)N4CCN(C)CC4)ccc3OCC)nc12 [sildenafil]
- NP (Rf from NP TLC plate) [1]: 0.69
- RP (Rf from RP-2 TLC plate) [4]: 0.77
- k(IAM) retention factor [2]: 14.26
- logkIAM [2]: 1.15
- CNS+/- [3]: 1

SMILES: CC(C)NCC(O)c1ccc(NS(C)(=O)=O)cc1 (centres unmarked) [sotalol]
- NP (Rf from NP TLC plate) [1]: 0.48
- RP (Rf from RP-2 TLC plate) [4]: 0.85
- k(IAM) retention factor [2]: 1.35
- logkIAM [2]: 0.13
- CNS+/- [3]: 1

SMILES: CC(=O)S[C@@H]1CC2=CC(=O)CC[C@]2(C)[C@H]2CC[C@@]3(C)[C@@H](CC[C@@]34CCC(=O)O4)[C@H]12 [spironolactone]
- NP (Rf from NP TLC plate) [1]: 0.98
- RP (Rf from RP-2 TLC plate) [4]: 0.78
- PB (protein binding) [5, 6]: 0.9
- k(IAM) retention factor [2]: 13.38
- logkIAM [2]: 1.13

SMILES: CCN1CCCC1CNC(=O)c1cc(S(N)(=O)=O)ccc1OC (centres unmarked) [sulpiride]
- NP (Rf from NP TLC plate) [1]: 0.27
- RP (Rf from RP-2 TLC plate) [4]: 0.85
- PB (protein binding) [5, 6]: 0.4
- k(IAM) retention factor [2]: 1.66
- logkIAM [2]: 0.22

SMILES: CCCc1nc2c(C)cc(-c3nc4ccccc4n3C)cc2n1Cc1ccc(-c2ccccc2C(=O)O)cc1 [telmisartan]
- NP (Rf from NP TLC plate) [1]: 0.9
- RP (Rf from RP-2 TLC plate) [4]: 0.87
- k(IAM) retention factor [2]: 4.68
- logkIAM [2]: 0.67
- CNS+/- [3]: 1

SMILES: COc1cc(Cc2cnc(N)nc2N)cc(OC)c1OC [trimethoprim]
- NP (Rf from NP TLC plate) [1]: 0.57
- CNS+/- [3]: 1

SMILES: CCN(Cc1ccncc1)C(=O)C(CO)c1ccccc1 (centres unmarked) [tropicamid]
- NP (Rf from NP TLC plate) [1]: 0.85
- RP (Rf from RP-2 TLC plate) [4]: 0.83
- PB (protein binding) ([5]; plasma): 0.45
- k(IAM) retention factor [2]: 1.06
- logkIAM [2]: 0.03

SMILES: CN(C)CCc1c[nH]c2ccc(C[C@H]3COC(=O)N3)cc12 [zolmitriptane]
- NP (Rf from NP TLC plate) [1]: 0.31
- RP (Rf from RP-2 TLC plate) [4]: 0.86
- PB (protein binding) ([5]; plasma): 0.25
- k(IAM) retention factor [2]: 3.30
- logkIAM [2]: 0.52

SMILES: CN1CCN(C(=O)OC2c3nccnc3C(=O)N2c2ccc(Cl)cn2)CC1 (centres unmarked) [zopiclone]
- NP (Rf from NP TLC plate) [1]: 0.96
- RP (Rf from RP-2 TLC plate) [4]: 0.84
- PB (protein binding) [5, 6]: 0.45
- k(IAM) retention factor [2]: 0.91
- logkIAM [2]: -0.04
